Source: PubChem BioAssay AID200 (DTP/NCI, 2004)
Values joined by “and” are separate entries in the source; they are usually repeats but may differ in a detail not shown here. Identical values can stand only once. Toxic doses and inconclusive results are not listed.

System: B6C3F1 mice, B16 melanoma ip, median survival T/C
Test: NCI In Vivo Anticancer Drug Screen. Data for tumor model B16 Melanoma (intraperitoneal) in B6C3F1 mice
Conditions: endpoint: median survival time, higher = longer survival
How it was run: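 Values are T/C ratios: the measurement in treated animals divided by that in vehicle-treated controls, using survival or tumor size in mice carrying transplantable tumors.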

[1] = dose: 25.0 mg/kg/injection, schedule: Q01DX009 (ip), vehicle: Klucel (hydroxypropylcellulose) (HPC)
[2] = dose: 50.0 mg/kg/injection, schedule: Q01DX009 (ip), vehicle: Klucel (hydroxypropylcellulose) (HPC)
[3] = dose: 12.5 mg/kg/injection, schedule: Q01DX009 (ip), vehicle: saline
[4] = dose: 25.0 mg/kg/injection, schedule: Q01DX009 (ip), vehicle: saline
[5] = dose: 50.0 mg/kg/injection, schedule: Q01DX009 (ip), vehicle: saline
[6] = dose: 100.0 mg/kg/injection, schedule: Q01DX009 (ip), vehicle: saline
[7] = dose: 200.0 mg/kg/injection, schedule: Q01DX009 (ip), vehicle: saline
[8] = dose: 50.0 mg/kg/injection, schedule: Q01DX009 (ip), vehicle: saline with Tween-80
[9] = dose: 100.0 mg/kg/injection, schedule: Q01DX009 (ip), vehicle: saline with Tween-80
[10] = dose: 200.0 mg/kg/injection, schedule: Q01DX009 (ip), vehicle: saline with Tween-80
[11] = dose: 12.5 mg/kg/injection, schedule: Q01DX009 (ip), vehicle: saline with Tween-80
[12] = dose: 25.0 mg/kg/injection, schedule: Q01DX009 (ip), vehicle: saline with Tween-80
[13] = dose: 6.25 mg/kg/injection, schedule: Q01DX009 (ip), vehicle: saline with Tween-80

O=C1c2ccccc2C(=O)N1CC#CCN1C(=O)c2ccccc2C1=O
T/C (dose: 75.0 mg/kg/injection, schedule: Q01DX009 (ip), vehicle: saline with Tween-80): 108 % of control
T/C (dose: 150.0 mg/kg/injection, schedule: Q01DX009 (ip), vehicle: saline with Tween-80): 93 % of control
T/C (dose: 300.0 mg/kg/injection, schedule: Q01DX009 (ip), vehicle: saline with Tween-80): 90 % of control

O=C(O)CSc1c(Cl)c(=O)oc2ccc(Cl)cc12
T/C (dose: 6.25 mg/kg/injection, schedule: Q01DX009 (ip), vehicle: Klucel (hydroxypropylcellulose) (HPC)): 97 % of control
T/C (dose: 12.5 mg/kg/injection, schedule: Q01DX009 (ip), vehicle: Klucel (hydroxypropylcellulose) (HPC)): 95 % of control
T/C [1]: 101 % of control
T/C [2]: 107 % of control
T/C (dose: 100.0 mg/kg/injection, schedule: Q01DX009 (ip), vehicle: Klucel (hydroxypropylcellulose) (HPC)): 116 % of control

O=C(O)/C=C(\F)C(=O)O
T/C (dose: 6.25 mg/kg/injection, schedule: Q01DX009 (ip), vehicle: saline): 97 % of control and 100 % of control
T/C [3]: 102 % of control and 107 % of control
T/C [4]: 108 % of control and 117 % of control
T/C [5]: 113 % of control and 114 % of control
T/C [6]: 103 % of control and 113 % of control
T/C [7]: 113 % of control and 103 % of control

CC(=O)NC(C=O)OCC=O (stereo not given)
T/C (dose: 6.25 mg/kg/injection, schedule: Q01DX009 (ip), vehicle: water): 112 % of control
T/C (dose: 12.5 mg/kg/injection, schedule: Q01DX009 (ip), vehicle: water): 111 % of control and 106 % of control
T/C (dose: 25.0 mg/kg/injection, schedule: Q01DX009 (ip), vehicle: water): 109 % of control and 105 % of control
T/C (dose: 50.0 mg/kg/injection, schedule: Q01DX009 (ip), vehicle: water): 103 % of control and 106 % of control
T/C (dose: 100.0 mg/kg/injection, schedule: Q01DX009 (ip), vehicle: water): 111 % of control and 117 % of control
T/C (dose: 200.0 mg/kg/injection, schedule: Q01DX009 (ip), vehicle: water): 112 % of control

CCCCCCCCCCCCCCCC[N+]1(C)CCN(SN2CC[N+](C)(CCCCCCCCCCCCCCCC)CC2)CC1
T/C [3]: 96 % of control
T/C [4]: 100 % of control
T/C [8]: 89 % of control

COc1ccc(N=C(C)C2C(=O)c3ccccc3C2=O)cc1
T/C (dose: 50.0 mg/kg/injection, schedule: Q01DX009 (ip), vehicle: DMSO): 103 % of control
T/C (dose: 100.0 mg/kg/injection, schedule: Q01DX009 (ip), vehicle: DMSO): 103 % of control
T/C (dose: 200.0 mg/kg/injection, schedule: Q01DX009 (ip), vehicle: DMSO): 105 % of control
T/C (dose: 400.0 mg/kg/injection, schedule: Q01DX009 (ip), vehicle: DMSO): 116 % of control
T/C (dose: 800.0 mg/kg/injection, schedule: Q01DX009 (ip), vehicle: DMSO): 97 % of control

NC(=O)CC(N)C(=O)O (stereo not given)
T/C [8]: 108 % of control
T/C [9]: 100 % of control
T/C [10]: 100 % of control
T/C (dose: 400.0 mg/kg/injection, schedule: Q01DX009 (ip), vehicle: saline with Tween-80): 105 % of control
T/C (dose: 800.0 mg/kg/injection, schedule: Q01DX009 (ip), vehicle: saline with Tween-80): 120 % of control
T/C (dose: 1600.0 mg/kg/injection, schedule: Q01DX009 (ip), vehicle: saline with Tween-80): 118 % of control

CC(C)(O)/C=C/C(=O)[C@](C)(O)[C@H]1[C@H](O)C[C@@]2(C)[C@@H]3CC=C4[C@@H](C[C@H](O)C(=O)C4(C)C)[C@]3(C)C(=O)C[C@]12C
T/C (dose: 0.5 mg/kg/injection, schedule: Q01DX009 (ip), vehicle: saline + Tween-80 + alcohol): 102 % of control
T/C (dose: 1.0 mg/kg/injection, schedule: Q01DX009 (ip), vehicle: saline + Tween-80 + alcohol): 98 % of control

Cc1cc(Nc2ccc3c(c2)OCO3)c2cc3c(cc2n1)OCO3
T/C [1]: 105 % of control
T/C [2]: 101 % of control

CCCCNC(C)(C)COC(=O)/C=C/c1ccc(OCCCC)cc1
T/C [11]: 98 % of control
T/C [12]: 93 % of control
T/C [8]: 90 % of control

Cc1ccc(NCCN(C)C)c2c(=O)c3cc(O)ccc3sc12
T/C (dose: 12.0 mg/kg/injection, schedule: Q01DX009 (ip), vehicle: Klucel (hydroxypropylcellulose) (HPC)): 164 % of control
T/C [1]: 183 % of control
T/C [2]: 87 % of control

NCCc1ccc(O)c(O)c1
T/C [5]: 96 % of control
T/C [6]: 106 % of control [middle of 4 runs]
T/C [7]: 109 % of control [middle of 4 runs]
T/C (dose: 400.0 mg/kg/injection, schedule: Q01DX009 (ip), vehicle: saline): 115 % of control [middle of 4 runs]
T/C (dose: 500.0 mg/kg/injection, schedule: Q01DX009 (ip), vehicle: saline): 119 % of control
T/C (dose: 600.0 mg/kg/injection, schedule: Q01DX009 (ip), vehicle: saline): 114 % of control and 112 % of control and 118 % of control
T/C (dose: 800.0 mg/kg/injection, schedule: Q01DX009 (ip), vehicle: saline): 121 % of control

Cc1cc2nc3[nH]c4ccccc4c3nc2cc1C
T/C (dose: 12.5 mg/kg/injection, schedule: Q01DX008 (ip), vehicle: saline): 91 % of control
T/C (dose: 25.0 mg/kg/injection, schedule: Q01DX008 (ip), vehicle: saline): 90 % of control
T/C (dose: 50.0 mg/kg/injection, schedule: Q01DX008 (ip), vehicle: saline): 101 % of control
T/C (dose: 100.0 mg/kg/injection, schedule: Q01DX008 (ip), vehicle: saline): 91 % of control
T/C (dose: 200.0 mg/kg/injection, schedule: Q01DX008 (ip), vehicle: saline): 86 % of control
T/C (dose: 400.0 mg/kg/injection, schedule: Q01DX008 (ip), vehicle: saline): 88 % of control

COc1cccc2c1C(=O)c1c(O)c3c(c(O)c1C2=O)C[C@@](O)(C(C)=O)C[C@@H]3OC1CC(N(Cc2ccccc2)Cc2ccccc2)C(O)C(C)O1 (stereo not given in full)
T/C (dose: 1.5 mg/kg/injection, schedule: Q01DX009 (ip), vehicle: saline with Tween-80): 100 % of control
T/C (dose: 1.5 mg/kg/injection, schedule: Q01DX009 (ip), vehicle: water): 112 % of control
T/C (dose: 3.0 mg/kg/injection, schedule: Q01DX009 (ip), vehicle: saline with Tween-80): 111 % of control
T/C (dose: 3.0 mg/kg/injection, schedule: Q01DX009 (ip), vehicle: water): 116 % of control
T/C (dose: 12.0 mg/kg/injection, schedule: Q01DX009 (ip), vehicle: saline with Tween-80): 156 % of control
T/C (dose: 12.0 mg/kg/injection, schedule: Q01DX009 (ip), vehicle: water): 151 % of control

CCC1=C[C@H]2CN(CCc3c([nH]c4ccccc34)[C@@](OC(C)=O)(c3cc4c(cc3OC)N(C)[C@H]3[C@@](O)(C(=O)NCCSc5ccccc5)[C@H](O)[C@]5(CC)C=CCN6CC[C@]43[C@@H]65)C2)C1
T/C (dose: 0.25 mg/kg/injection, schedule: Q01DX009 (ip), vehicle: water): 107 % of control
T/C (dose: 1.0 mg/kg/injection, schedule: Q01DX009 (ip), vehicle: water): 118 % of control
T/C (dose: 2.0 mg/kg/injection, schedule: Q01DX009 (ip), vehicle: water): 124 % of control

CN=C(N)NCCCCCCCCNC(N)=NC
T/C [13]: 102 % of control
T/C [11]: 98 % of control

O=C1C=CC(=O)N1c1ccc(Cl)cc1
T/C (dose: 0.31 mg/kg/injection, schedule: Q01DX009 (ip), vehicle: Klucel (hydroxypropylcellulose) (HPC)): 100 % of control and 102 % of control
T/C (dose: 0.63 mg/kg/injection, schedule: Q01DX009 (ip), vehicle: Klucel (hydroxypropylcellulose) (HPC)): 111 % of control and 86 % of control
T/C (dose: 1.25 mg/kg/injection, schedule: Q01DX009 (ip), vehicle: Klucel (hydroxypropylcellulose) (HPC)): 96 % of control and 100 % of control
T/C (dose: 2.5 mg/kg/injection, schedule: Q01DX009 (ip), vehicle: Klucel (hydroxypropylcellulose) (HPC)): 100 % of control

Cc1ccc2c(c1)N=C(Nc1ccccc1)N=S2(C)=O (stereo not given)
T/C [13]: 101 % of control
T/C [11]: 87 % of control
T/C [12]: 102 % of control
T/C [8]: 96 % of control
T/C [9]: 87 % of control
T/C [10]: 90 % of control

O=C1C=CC(=Nc2ccc3c(c2)C(Br)c2ccccc2-3)O1 (stereo not given)
T/C (dose: 5.0 mg/kg/injection, schedule: Q01DX009 (ip), vehicle: saline): 92 % of control
T/C (dose: 10.0 mg/kg/injection, schedule: Q01DX009 (ip), vehicle: saline): 87 % of control
